# PubChem BioAssay (NCI)
#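 At the GI50, growth is halved. TGI: concentration producing complete growth inhibition.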
# Legend:
# Assay in all cases: inhibition of tumour cell growth, NCI panel, 384-well format
# MCF7 breast = system: MCF7 breast
# UACC-62 melanoma = system: UACC-62 melanoma
# RPMI-8226 leukemia = system: RPMI-8226 leukemia
# EKVX NSCLC = system: EKVX NSCLC
# SNB-75 CNS = system: SNB-75 CNS
# MALME-3M melanoma = system: MALME-3M melanoma
# NCI/ADR-RES ovarian = system: NCI/ADR-RES ovarian
# OVCAR-4 ovarian = system: OVCAR-4 ovarian
# BT-549 breast = system: BT-549 breast
# UACC-257 melanoma = system: UACC-257 melanoma
# LOX IMVI melanoma = system: LOX IMVI melanoma
# MDA-MB-435 melanoma = system: MDA-MB-435 melanoma
# NCI-H460 NSCLC = system: NCI-H460 NSCLC
# HCC-2998 colon = system: HCC-2998 colon
# SF-295 CNS = system: SF-295 CNS
# HL-60(TB) leukemia = system: HL-60(TB) leukemia
# OVCAR-8 ovarian = system: OVCAR-8 ovarian
# HOP-92 NSCLC = system: HOP-92 NSCLC
# K-562 leukemia = system: K-562 leukemia
# A498 renal = system: A498 renal
# ACHN renal = system: ACHN renal
# NCI-H23 lung = system: NCI-H23 lung
# HS 578T breast = system: HS 578T breast
# SF-539 CNS = system: SF-539 CNS
# MDA-MB-231 breast = system: MDA-MB-231 breast
# HCT-15 colon = system: HCT-15 colon
# DU-145 prostate = system: DU-145 prostate
# MOLT-4 leukemia = system: MOLT-4 leukemia
# MDA-MB-468 breast = system: MDA-MB-468 breast
# PC-3 prostate = system: PC-3 prostate
# OVCAR-5 ovarian = system: OVCAR-5 ovarian
# KM12 colon = system: KM12 colon
# UO-31 renal = system: UO-31 renal
# OVCAR-3 ovarian = system: OVCAR-3 ovarian
# SNB-19 CNS = system: SNB-19 CNS
# IGROV1 ovarian = system: IGROV1 ovarian
# HOP-62 NSCLC = system: HOP-62 NSCLC
# T-47D breast = system: T-47D breast
# A549 NSCLC = system: A549 NSCLC
# SK-MEL-5 melanoma = system: SK-MEL-5 melanoma
# CAKI-1 renal = system: CAKI-1 renal
# TK-10 renal = system: TK-10 renal
# NCI-H226 lung = system: NCI-H226 lung
# SN12C renal = system: SN12C renal
# SR leukemia = system: SR leukemia
# RXF 393 renal = system: RXF 393 renal
# M14 melanoma = system: M14 melanoma
# CCRF-CEM leukemia = system: CCRF-CEM leukemia
# SK-MEL-28 melanoma = system: SK-MEL-28 melanoma
# SF-268 CNS = system: SF-268 CNS
# NCI-H322M lung = system: NCI-H322M lung
# 786-0 renal = system: 786-0 renal
# SW-620 colon = system: SW-620 colon
# COLO 205 colon = system: COLO 205 colon
# U251 glioblastoma = system: U251 glioblastoma
# HT29 colon = system: HT29 colon
# NCI-H522 lung = system: NCI-H522 lung
# SK-OV-3 ovarian = system: SK-OV-3 ovarian
compound,measurement,setting,value
Cc1cc(N2CCOCC2)cc2[nH]c(-c3c(NC[C@@H](O)c4cccc(Cl)c4)cc[nH]c3=O)nc12,GI50,MCF7 breast,244 nM
same,TGI,MCF7 breast,11600 nM
same,GI50,UACC-62 melanoma,2510 nM
same,TGI,UACC-62 melanoma,11700 nM
same,GI50,RPMI-8226 leukemia,1560 nM
same,TGI,RPMI-8226 leukemia,3130 nM
same,GI50,EKVX NSCLC,663 nM
same,TGI,EKVX NSCLC,2710 nM
same,GI50,SNB-75 CNS,1840 nM
same,TGI,SNB-75 CNS,3590 nM
same,GI50,MALME-3M melanoma,415 nM
same,TGI,MALME-3M melanoma,3990 nM
same,GI50,NCI/ADR-RES ovarian,3280 nM
same,TGI,NCI/ADR-RES ovarian,11100 nM
same,GI50,OVCAR-4 ovarian,1830 nM
same,TGI,OVCAR-4 ovarian,6990 nM
same,GI50,BT-549 breast,1830 nM
same,TGI,BT-549 breast,4760 nM
same,GI50,UACC-257 melanoma,2170 nM
same,TGI,UACC-257 melanoma,9080 nM
same,GI50,LOX IMVI melanoma,845 nM
same,TGI,LOX IMVI melanoma,2070 nM
same,GI50,MDA-MB-435 melanoma,691 nM
same,TGI,MDA-MB-435 melanoma,3560 nM
same,GI50,NCI-H460 NSCLC,607 nM
same,TGI,NCI-H460 NSCLC,2760 nM
same,GI50,HCC-2998 colon,1170 nM
same,TGI,HCC-2998 colon,2530 nM
same,GI50,SF-295 CNS,2440 nM
same,TGI,SF-295 CNS,7730 nM
same,GI50,HL-60(TB) leukemia,85.6 nM
same,TGI,HL-60(TB) leukemia,1100 nM
same,GI50,OVCAR-8 ovarian,3290 nM
same,TGI,OVCAR-8 ovarian,11100 nM
same,GI50,HOP-92 NSCLC,477 nM
same,TGI,HOP-92 NSCLC,1920 nM
same,GI50,K-562 leukemia,1810 nM
same,TGI,K-562 leukemia,4120 nM
same,GI50,A498 renal,2190 nM
same,TGI,A498 renal,4840 nM
same,GI50,ACHN renal,1510 nM
same,TGI,ACHN renal,9760 nM
same,GI50,NCI-H23 lung,234 nM
same,TGI,NCI-H23 lung,2640 nM
same,GI50,HS 578T breast,1500 nM
same,TGI,HS 578T breast,3070 nM
same,GI50,SF-539 CNS,1520 nM
same,TGI,SF-539 CNS,2920 nM
same,GI50,MDA-MB-231 breast,2030 nM
same,TGI,MDA-MB-231 breast,10400 nM
same,GI50,HCT-15 colon,1960 nM
same,TGI,HCT-15 colon,10100 nM
same,GI50,DU-145 prostate,1740 nM
same,TGI,DU-145 prostate,4580 nM
same,GI50,MOLT-4 leukemia,1150 nM
same,TGI,MOLT-4 leukemia,2500 nM
same,GI50,MDA-MB-468 breast,2230 nM
same,TGI,MDA-MB-468 breast,4730 nM
same,GI50,PC-3 prostate,3180 nM
same,TGI,PC-3 prostate,13800 nM
same,GI50,OVCAR-5 ovarian,831 nM
same,TGI,OVCAR-5 ovarian,4470 nM
same,GI50,KM12 colon,16.3 nM
same,TGI,KM12 colon,121 nM
same,GI50,UO-31 renal,1780 nM
same,TGI,UO-31 renal,5010 nM
same,GI50,OVCAR-3 ovarian,2880 nM
same,TGI,OVCAR-3 ovarian,12500 nM
same,GI50,SNB-19 CNS,2790 nM
same,TGI,SNB-19 CNS,8230 nM
same,GI50,IGROV1 ovarian,1340 nM
same,TGI,IGROV1 ovarian,3260 nM
same,GI50,HOP-62 NSCLC,2480 nM
same,TGI,HOP-62 NSCLC,9040 nM
same,GI50,T-47D breast,3840 nM
same,TGI,T-47D breast,16200 nM
same,GI50,A549 NSCLC,1540 nM
same,TGI,A549 NSCLC,5240 nM
same,GI50,SK-MEL-5 melanoma,1320 nM
same,TGI,SK-MEL-5 melanoma,4140 nM
same,GI50,CAKI-1 renal,1770 nM
same,TGI,CAKI-1 renal,4290 nM
same,GI50,TK-10 renal,1760 nM
same,TGI,TK-10 renal,4730 nM
same,GI50,NCI-H226 lung,197 nM
same,TGI,NCI-H226 lung,1760 nM
same,GI50,SN12C renal,715 nM
same,TGI,SN12C renal,2420 nM
same,GI50,SR leukemia,1150 nM
same,TGI,SR leukemia,2390 nM
same,GI50,RXF 393 renal,1440 nM
same,TGI,RXF 393 renal,2910 nM
same,GI50,M14 melanoma,735 nM
same,TGI,M14 melanoma,5440 nM
same,GI50,CCRF-CEM leukemia,2110 nM
same,TGI,CCRF-CEM leukemia,3940 nM
same,GI50,SK-MEL-28 melanoma,1250 nM
same,TGI,SK-MEL-28 melanoma,6950 nM
same,GI50,SF-268 CNS,1760 nM
same,TGI,SF-268 CNS,4770 nM
same,GI50,NCI-H322M lung,1880 nM
same,TGI,NCI-H322M lung,11300 nM
same,GI50,786-0 renal,1830 nM
same,TGI,786-0 renal,4360 nM
same,GI50,SW-620 colon,1760 nM
same,TGI,SW-620 colon,11300 nM
same,GI50,COLO 205 colon,243 nM
same,TGI,COLO 205 colon,1030 nM
same,GI50,U251 glioblastoma,3300 nM
same,TGI,U251 glioblastoma,12100 nM
same,GI50,HT29 colon,203 nM
same,TGI,HT29 colon,1640 nM
same,GI50,NCI-H522 lung,1530 nM
same,TGI,NCI-H522 lung,3830 nM
same,GI50,SK-OV-3 ovarian,1630 nM
same,TGI,SK-OV-3 ovarian,5780 nM
